Laboratory results reported in patent US20260158009A1 (GENZYME CORPORATION, priority 2023, published 2026).

Key:
[1] = biological target: T1, hRIPK1 (aa 1-375) fusion protein (Homo sapiens, UniProt Q13546); assay: ADP-Glo kinase assay: catalytic activity of RIPK1 (autophosphorylation, conversion of ATP to ADP); format: biochemical
T1 construct: hRIPK1 (aa 1-375) fusion protein
T1 sequence (Q13546 1-375): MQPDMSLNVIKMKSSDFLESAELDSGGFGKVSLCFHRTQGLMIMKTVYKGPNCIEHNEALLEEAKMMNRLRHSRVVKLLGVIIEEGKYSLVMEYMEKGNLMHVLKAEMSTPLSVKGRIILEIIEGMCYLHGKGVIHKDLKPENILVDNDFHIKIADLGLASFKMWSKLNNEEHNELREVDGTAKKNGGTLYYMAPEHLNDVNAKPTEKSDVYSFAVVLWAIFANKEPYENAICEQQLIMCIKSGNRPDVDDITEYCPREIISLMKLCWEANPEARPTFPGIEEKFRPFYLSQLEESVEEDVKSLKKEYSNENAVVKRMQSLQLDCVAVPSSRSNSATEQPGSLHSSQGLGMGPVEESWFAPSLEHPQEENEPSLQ
Procedure: The catalytic activity of RIPK1 was measured by monitoring the conversion of Adenosine triphosphate (ATP) to Adenosine diphosphate (ADP) due to autophosphorylation using an ADP-Glo kinase kit (Promega, catalog no. V9104).
In detail, 2 μl recombinantly produced hRIPK1 (aa 1-375) fusion protein (end concentration 3.6 μg/ml) and 2 μl compound (end concentration 33300-1.69 nM; DMSO end concentration 1%) were incubated for 30 minutes at room temperature and then 2 μl ATP (ADP Glo kit, end concentration 50 μM) were added. After another 240 minutes incubation at room temperature, 5 μl Promega ADP-Glo reagent I was added to quench the reaction and deplete unconsumed ATP. After an incubation period of 30 minutes, 10 μl Promega ADP-Glo detection reagent II was added resulting in conversion of ADP to ATP, which generates a light-reaction between luciferase and luciferin. Luminescence was quantified after 30 minutes with a Pherastar FS (BMG LABTECH, Ortenberg).
The adjustment was obtained by nonlinear regression using the Levenberg Marquardt algorithm.

U937 cells = assay: Cellular assay in U937 cells: activity of RIPK1 inhibitors on TNFα/zVAD.fmk-induced cell death (necroptosis), CellTiter 96 AQueous (MTS) readout; format: cell-based; details: Homo sapiens, U-937
From the text: Upon TNF-Receptor I ligation, Ser/Thr kinase RIPK1 is recruited to a transient receptor complex 1. Upon modification of RIPK1 which promotes activation of RIPK1, complex IIb can form, that involves recruitment of RIPK3 and MLKL (mixed lineage-kinase domain-like protein) which then translocates from the cytosol to the plasma membrane to execute cell death (Cai, Z. et al, Nat. Cell Biol. (2014) 16:55-65).
Cell death was quantified in 96 well plates by determination of the amount of live cell using a CellTiter 96 AQueous reagent (Promega), a calorimetric method to measure the number of live cells by reducing tetrazolium compound [3-(4,5-dimethylthiazol-2-yl)-5-(3-carboxymethoxyphenyl)-2-(4-sulfophenyl)-2H-tetrazolium, inner salt; MTS] into formazan. Absorbance of formazan was read at 490 nm. The inhibitory activity of the test compound was quantified in a concentration response curve (CRC) experiment.
Compounds were obtained as 10 mM stock solutions and were diluted 1 to 10 volumes with DMSO to yield a 1 mM solution. From this solution 2 μl were diluted with 998 μl growth medium. 100 μl of 2 μM compound solution was further diluted sequentially with a dilution factor of 2.5 by adding 150 μl growth medium. A total of 10 concentrations were tested ranging from 10 μM to 0.26 nM or from 1 μM to 0.07 nM.
U937 cells were cultured in RPMI1640 Glutamax and 10% heat inactivated FBS. 50 μl cell suspension containing 1×10^6 cells/ml supplemented with 50 μM zVAD.fmk (Benzyloxycarbonyl-Val-Ala-Asp (OMe) fluoromethylketone) and 100 ng/ml recombinant human TNF[…] were dispensed in each well of a 96-well plate. 50 μl of compound dilutions (described in Cellular assay in U937 cells) were added and the cell suspension incubated overnight (18 to 24 hrs) at 37° C., 5% CO2 in a humidified atmosphere (95% rH). High (no compound) and low control (no TNF[…], zVAD.fmk) were tested with 7 replicates; all compound concentrations were tested in duplicates on each experimental plate.
CellTiter 96 Aqueous reagent was mixed (100 μl PMS (phenazine methosulfate) solution/2 ml MTS (3-(4,5-[…])-5-(3-carboxymethoxyphenyl)-2-(4-sulfophenyl)-2H-tetrazolium, inner salt) solution) and 20 μl were added per well. After 4 hrs incubation at 37° C. (5% CO2 95% rH) optical density was measured at 490 nm on a microplate reader (Tecan Infinite M1000).
The % inhibition is expressed as percentage of the maximal inhibition value obtained in the absence of TNFα/zVAD.fmc.

Row | Structure (SMILES) | IC50 [1] | IC50 (U937 cells)
1 | Cc1cc(C[C@H]2CC[C@H](C(=O)N3OCCC3c3cnccn3)CC2)c(C)cn1 (stereo in doubt) [compound 356, trans-[4-(2,5-Dimethyl-pyridin-4-ylmethyl)-cyclohexyl]-((S)-3-pyrazin-2-yl-isoxazolidin-2-yl)-methanone] | 26 nM | 5 nM
2 | COc1cncc([C@@H]2CCON2C(=O)[C@H]2CC[C@H](Cn3ncc4ccc(C(N)=O)cc43)CC2)n1 [Compound 201, trans-1-[[4-[(3S)-3-(6-methoxypyrazin-2-yl)isoxazolidine-2-carbonyl]cyclohexyl]methyl]indazole-6-carboxamide] | 62 nM | 190 nM
3 | NC(=O)c1ccc2cn(C[C@H]3CC[C@H](C(=O)N4OCC[C@H]4c4cnccn4)CC3)nc2c1 [Compound 228, trans-2-[[4-[(3S)-3-pyrazin-2-ylisoxazolidine-2-carbonyl]cyclohexyl]methyl]indazole-6-carboxamide] | 65 nM | 191 nM
4 | NC(=O)c1ccc2cnn(C[C@H]3CC[C@H](C(=O)N4OCC[C@H]4c4cnccn4)CC3)c2c1 [Compound 229, trans-1-[[4-[(3S)-3-pyrazin-2-ylisoxazolidine-2-carbonyl]cyclohexyl]methyl]indazole-6-carboxamide] | 25 nM | 78 nM
5 | NC(=O)c1ccc2cnn(C[C@H]3CC[C@H](C(=O)N4OCC[C@H]4c4ccccn4)CC3)c2c1 [Compound 230, trans-1-[[4-[(3S)-3-(2-pyridyl)isoxazolidine-2-carbonyl]cyclohexyl]methyl]indazole-6-carboxamide] | 131 nM | 376 nM
6 | Cc1nc([C@@H]2CCON2C(=O)[C@H]2CC[C@H](Cn3cc4ccc(C(N)=O)cc4n3)CC2)cs1 [Compound 233, trans-2-[[4-[(3S)-3-(2-methylthiazol-4-yl)isoxazolidine-2-carbonyl]cyclohexyl]methyl]indazole-6-carboxamide] | 114 nM | 384 nM
7 | Cc1nc([C@@H]2CCON2C(=O)[C@H]2CC[C@H](Cn3ncc4ccc(C(N)=O)cc43)CC2)cs1 [Compound 234, trans-1-[[4-[(3S)-3-(2-methylthiazol-4-yl)isoxazolidine-2-carbonyl]cyclohexyl]methyl]indazole-6-carboxamide] | 49 nM | 126 nM
8 | N#Cc1cc(F)cc([C@@H]2CCON2C(=O)[C@H]2CC[C@H](Cc3cc(F)cc(CO)c3)CC2)c1 [Compound 256, trans-3-fluoro-5-[(3S)-2-[4-[[3-fluoro-5-(hydroxymethyl)phenyl]methyl]cyclohexanecarbonyl]isoxazolidin-3-yl]benzonitrile] | 15 nM | 1 nM
9 | Cn1cc(C[C@H]2CC[C@H](C(=O)N3OCC[C@H]3c3cc(F)cc(C#N)c3)CC2)nn1 [Compound 258, trans-3-fluoro-5-[(3S)-2-[4-[(1-methyltriazol-4-yl)methyl]cyclohexanecarbonyl]isoxazolidin-3-yl]benzonitrile] | 71 nM | 862 nM
10 | Cc1nc2cc(C[C@H]3CC[C@H](C(=O)N4OCC[C@H]4c4cccc(C#N)c4)CC3)ccn2n1 [compound 1, trans-3-[(3S)-2-[4-[(2-methyl-[1,2,4]triazolo[1,5-a]pyridin-7-yl)methyl]cyclohexanecarbonyl]isoxazolidin-3-yl]benzonitrile] | 21 nM | 29 nM
11 | N#Cc1cc(F)cc([C@@H]2CCON2C(=O)[C@H]2CC[C@H](Cn3ccc4ncc(C#N)cc43)CC2)c1 [compound 2, trans-1-((4-((S)-3-(3-cyano-5-fluorophenyl)isoxazolidine-2-carbonyl)cyclohexyl)methyl)-1H-pyrrolo[3,2-b]pyridine-6-carbonitrile] | 33 nM | 9 nM
12 | N#Cc1cnc2ccn(C[C@H]3CC[C@H](C(=O)N4OCC[C@H]4c4cncc(F)c4)CC3)c2c1 [compound 3, trans-1-((4-((S)-3-(5-fluoropyridin-3-yl)isoxazolidine-2-carbonyl)cyclohexyl)methyl)-1H-pyrrolo[3,2-b]pyridine-6-carbonitrile] | 22 nM | 18 nM
13 | Cc1ncn(C[C@H]2CC[C@H](C(=O)N3OCC[C@H]3c3cncc(F)c3)CC2)c1C#N [compound 4, trans-1-((4-((S)-3-(5-fluoropyridin-3-yl)isoxazolidine-2-carbonyl)cyclohexyl)methyl)-4-methyl-1H-imidazole-5-carbonitrile] | 116 nM | 721 nM
14 | N#Cc1cc(F)cc([C@@H]2CCON2C(=O)[C@H]2CC[C@H](Cn3cnc4cc(C#N)ccc43)CC2)c1 [compound 5, trans-1-((4-((S)-3-(3-cyano-5-fluorophenyl)isoxazolidine-2-carbonyl)cyclohexyl)methyl)-1H-benzo[d]imidazole-5-carbonitrile] | 45 nM | 244 nM
15 | N#Cc1ccc2c(c1)ncn2C[C@H]1CC[C@H](C(=O)N2OCC[C@H]2c2cncc(F)c2)CC1 [compound 6, trans-1-((4-((S)-3-(5-fluoropyridin-3-yl)isoxazolidine-2-carbonyl)cyclohexyl)methyl)-1H-benzo[d]imidazole-5-carbonitrile] | 154 nM | 377 nM
16 | N#Cc1cc(F)cc([C@@H]2CCON2C(=O)[C@H]2CC[C@H](Cn3cnc4ccccc43)CC2)c1 [compound 7, trans-3-((S)-2-(4-((1H-benzo[d]imidazol-1-yl)methyl)cyclohexane-1-carbonyl)isoxazolidin-3-yl)-5-fluorobenzonitrile] | 15 nM | 9 nM
17 | O=C([C@H]1CC[C@H](Cn2cnc3ccccc32)CC1)N1OCC[C@H]1c1cc(F)cc(F)c1 [compound 8, trans-(4-((1H-benzo[d]imidazol-1-yl)methyl)cyclohexyl)((S)-3-(3,5-difluorophenyl)isoxazolidin-2-yl)methanone] | 19 nM | 6 nM
18 | N#Cc1cc(F)cc([C@@H]2CCON2C(=O)[C@H]2CC[C@H](Cc3ccc(F)c(C#N)c3)CC2)c1 [compound 244, trans-5-[[4-[(3S)-3-(3-cyano-5-fluoro-phenyl)isoxazolidine-2-carbonyl]cyclohexyl]methyl]-2-fluoro-benzonitrile] | 20 nM | –
19 | COc1cc(CC2CCC(C(=O)N3OCC[C@H]3c3cnccn3)CC2)cn2nc(C)nc12 (stereo partly drawn) [compound 314, [4-[(8-methoxy-2-methyl-[1,2,4]triazolo[1,5-a]pyridin-6-yl)methyl]cyclohexyl]-[(3S)-3-pyrazin-2-yl-1,2-oxazolidin-2-yl]methanone] | 35 nM | –
20 | COc1cc(C[C@H]2CC[C@H](C(=O)N3OCC[C@H]3c3csc(C)n3)CC2)cn2nc(C)nc12 [compound 367, trans-[4-(8-Methoxy-2-methyl-[1,2,4]triazolo[1,5-a]pyridin-6-ylmethyl)-cyclohexyl]-[(S)-3-(2-methyl-thiazol-4-yl)-isoxazolidin-2-yl]-methanone] | 94 nM | –
21 | Cc1cnc([C@@H]2CCON2C(=O)[C@H]2CC[C@H](Cc3cnc4c(C)nn(C)c4c3)CC2)cn1 [compound 410, [4-[(1,3-dimethylpyrazolo[4,3-b]pyridin-6-yl)methyl]cyclohexyl]-[(3S)-3-(5-methylpyrazin-2-yl)-1,2-oxazolidin-2-yl]methanone] | 80 nM | –
